Measured values published in patent US8916702B2 (priority 2012, dated 2014).
Like-named read-outs stand apart in the source and are kept apart here.

Tested on: HCV pseudoparticles (genotype 1a HCV E1 and E2 envelope, H77C isolate)
Assay: microbe, parasite or virus in culture
Format: cell-based
[1] = Hepatitis C virus, Huh-7, 48 h, read-out: Activity (EC50 class), HCV pseudoparticle infection of Huh7 cells, luciferase 2 days after infection, EC50 expressed as class A/B
[2] = Hepatitis C virus, Huh-7, read-out: Activity (EC50 class), HCV pseudoparticles (genotype 1a, H77C) in Huh7 cells, EC50 expressed as class A/B
[3] = Hepatitis C virus, Huh-7, 48 h, read-out: Activity (EC50 class), HCV pseudoparticles, Huh7 cells, luciferase 2 days after infection, average of duplicates
[4] = Hepatitis C virus, Huh-7, 48 h, HCV pseudoparticles, Huh7 cells, luciferase 2 days after infection, average of duplicates
[5] = Hepatitis C virus, Huh-7, 48 h, HCV pseudoparticle infection of Huh7 cells, luciferase 2 days after infection, average of duplicates

Row | SMILES | EC50 [1] [nM] | EC50 [3] [nM] | other results
1 | COC(=O)[C@H](CCNC(=O)C(=O)NCc1ccc(F)cc1F)NC(=O)c1ccc(Nc2nc(NC3(c4ccc(Cl)cc4)CC3)nc(OCC(F)(F)F)n2)cc1 [Compound 1161] | 0.01 to 10 | – | –
2 | Cc1ccc(NC(=O)C(=O)NC(C)(C)CNC(=O)c2ccc(Nc3nc(NC4(c5ccc(Cl)cc5)CC4)nc(OCC(F)(F)F)n3)cc2)cc1 [Compound 3417] | – | – | EC50 (Hepatitis C virus, Huh-7, 48 h, HCV pseudoparticles (genotype 1a, H77C) in Huh7 cells, average of duplicate, luciferase 2 days after infection): 0.032 nM; EC50 [2]: 0.01 to 10 nM
3 | O=C(NC[C@H](NC(=O)c1ccc(Nc2nc(NC3(c4ccccc4)CC3)nc(OCC(F)(F)F)n2)cc1)C(=O)O)C(=O)Nc1ccc(Oc2ccc(F)cc2)cc1 [Compound 3269] | – | – | EC50 [2]: 0.01 to 10 nM
4 | COC(=O)[C@H](CCNC(=O)C(=O)Nc1cccc(-n2cnnc2)c1)NC(=O)c1ccc(Nc2nc(NC3(c4ccc(Cl)cc4)CC3)nc(OCC(F)(F)F)n2)cc1 [Compound 3605] | – | 0.01 to 10 | –
5 | CC(C)(C)CNC(=O)C(=O)NC[C@H](NC(=O)c1ccc(Nc2nc(NC3(c4ccc(Cl)cc4)CC3)nc(OCC(F)(F)F)n2)cc1)C(=O)O [Compound 1450] | 0.01 to 10 | – | –
6 | C[C@@H]1[C@H]2C[C@H](C[C@H]1NC(=O)C(=O)NC[C@H](NC(=O)c1ccc(Nc3nc(NC4(c5ccc(Cl)cc5)CC4)nc(OCC(F)(F)F)n3)cc1)C(=O)O)C2(C)C [Compound 1105] | 0.01 to 10 | – | –
7 | O=C(CNC(=O)C(=O)Nc1cccc(F)c1)CNC(=O)c1ccc(Nc2nc(NC3(c4ccc(Cl)cc4)CC3)nc(OCC(F)(F)F)n2)cc1 [Compound 3363] | – | – | EC50 [2]: 0.01 to 10 nM
8 | CN(C)c1ccc(NC(=O)C(=O)NCC(C)(C)CNC(=O)c2ccc(Nc3nc(NC4(c5ccc(Cl)cc5)CC4)nc(OCC(F)(F)F)n3)cc2)cc1 [Compound 1602] | 0.01 to 10 | – | –
9 | CC(C)c1cccc(NC(=O)C(=O)NCC[C@H](NC(=O)c2ccc(Nc3nc(NC4(c5ccc(Cl)cc5)CC4)nc(OCC(F)(F)F)n3)cc2)C(=O)O)c1 [Compound 3627] | – | 0.01 to 10 | EC50 [4]: 0.1 nM
10 | CCN(CC)CCOc1cccc(NC(=O)C(=O)NCC[C@H](NC(=O)c2ccc(Nc3nc(NC4(c5ccc(Cl)cc5)CC4)nc(OCC(F)(F)F)n3)cc2)C(=O)O)c1 [Compound 3658] | – | 0.01 to 10 | –
11 | COC(=O)[C@H](CCNC(=O)C(=O)Nc1ccc(C(F)(F)F)cc1)NC(=O)c1ccc(Nc2nc(NC3(c4ccc(Cl)cc4)CC3)nc(OCC(F)(F)F)n2)cc1 [Compound 1233] | 0.01 to 10 | – | –
12 | O=C(NC[C@H](NC(=O)c1ccc(Nc2nc(NC3(c4ccc(Cl)cc4)CC3)nc(OCC(F)(F)F)n2)cc1)C(=O)O)C(=O)Nc1cccc(OC(F)F)c1 [Compound 3764] | – | 0.01 to 10 | –
13 | COc1cccc(C2CC2CNC(=O)C(=O)NCC[C@H](NC(=O)c2ccc(Nc3nc(NC4(c5ccc(Cl)cc5)CC4)nc(OCC(F)(F)F)n3)cc2)C(=O)O)c1 (stereo partly shown) [Compound 1423] | 0.01 to 10 | – | –
14 | CC(C)(C)OC(=O)N1CCC(CNC(=O)C(=O)NCC[C@H](NC(=O)c2ccc(Nc3nc(NC4(c5ccc(Cl)cc5)CC4)nc(OCC(F)(F)F)n3)cc2)C(=O)O)CC1 [Compound 1213] | 0.01 to 10 | – | –
15 | O=C(NCCc1cccnc1)C(=O)NC[C@H](NC(=O)c1ccc(Nc2nc(NC3(c4ccc(Cl)cc4)CC3)nc(OCC(F)(F)F)n2)cc1)C(=O)O [Compound 1405] | 0.01 to 10 | – | –
16 | O=C(NCCc1ccccc1)C(=O)NC[C@H](NC(=O)c1ccc(Nc2nc(NC3(c4ccc(Cl)cc4)CC3)nc(OCC(F)(F)F)n2)cc1)C(=O)O [Compound 1396] | 0.01 to 10 | – | –
17 | COc1ccc(CCNC(=O)C(=O)NC[C@H](NC(=O)c2ccc(Nc3nc(NC4(c5ccc(Cl)cc5)CC4)nc(OCC(F)(F)F)n3)cc2)C(=O)O)cc1 [Compound 1399] | 0.01 to 10 | – | –
18 | COC(=O)[C@H](CCNC(=O)C(=O)Nc1ccc(-n2ccnc2)cc1)NC(=O)c1ccc(Nc2nc(NC3(c4ccc(Cl)cc4)CC3)nc(OCC(F)(F)F)n2)cc1 [Compound 3300] | – | – | EC50 [2]: 10 to 1000 nM
19 | COC(=O)[C@H](CNC(=O)C(=O)Nc1cccc(-c2cccnc2)c1)NC(=O)c1ccc(Nc2nc(NC3(c4ccc(Cl)cc4)CC3)nc(OCC(F)(F)F)n2)cc1 [Compound 3728] | – | 0.01 to 10 | –
20 | COC(=O)[C@H](CCNC(=O)C(=O)Nc1ccc(OC(F)(F)F)cc1)NC(=O)c1ccc(Nc2nc(NC3(c4ccc(Cl)cc4)CC3)nc(OCC(F)(F)F)n2)cc1 [Compound 3331] | – | – | EC50 [2]: 0.01 to 10 nM
21 | COC(=O)[C@H](CNC(=O)C(=O)Nc1ccc(CN2CCCCC2)cc1)NC(=O)c1ccc(Nc2nc(NC3(c4ccc(Cl)cc4)CC3)nc(OCC(F)(F)F)n2)cc1 [Compound 3196] | – | – | EC50 [2]: 0.01 to 10 nM
22 | COC(=O)[C@H](CCNC(=O)C(=O)NCCc1ccc(OC)cc1)NC(=O)c1ccc(Nc2nc(NC3(c4ccc(Cl)cc4)CC3)nc(OCC(F)(F)F)n2)cc1 [Compound 1310] | 0.01 to 10 | – | EC50 [5]: 0.62 nM
23 | O=C(NC/C(=N/C(=O)c1ccc(Nc2nc(NC3(c4ccc(Cl)cc4)CC3)nc(OCC(F)(F)F)n2)cc1)C(=O)O)C(=O)Nc1ccc(NCc2ccccc2)cc1 [Compound 3158] | – | – | EC50 [2]: 0.01 to 10 nM

Row | SMILES | EC50 [1] [nM] | EC50 [3] [nM] | other results
24 | COC(=O)[C@H](CNC(=O)C(=O)Nc1ccc(Oc2ccc(Cl)cc2Cl)nc1)NC(=O)c1ccc(Nc2nc(NC3(c4ccc(Cl)cc4)CC3)nc(OCC(F)(F)F)n2)cc1 [Compound 3697] | – | 0.01 to 10 | –
25 | CC(C)n1ccc(NC(=O)C(=O)NCC(C)(C)CNC(=O)c2ccc(Nc3nc(NC4(c5ccc(Cl)cc5)CC4)nc(OCC(F)(F)F)n3)cc2)n1 [Compound 3836] | – | 0.01 to 10 | –
26 | CC(C)(C)CC(=O)N[C@H]1CC[C@@H](CNC(=O)C(=O)NC[C@H](NC(=O)c2ccc(Nc3nc(NC4(c5ccc(Cl)cc5)CC4)nc(OCC(F)(F)F)n3)cc2)C(=O)O)CC1 [Compound 1469] | 0.01 to 10 | – | EC50 [5]: 2.3 nM
27 | COC(=O)[C@H](CCNC(=O)C(=O)Nc1ccc(C)cc1)NC(=O)c1ccc(Nc2nc(NC3(c4ccc(Cl)cc4)CC3)nc(OCC(F)(F)F)n2)cc1 [Compound 3217] | – | – | EC50 (HCV pseudoparticles (genotype 1a, H77C) in Huh7 cells, average of duplicate, luciferase 2 days after infection): 0.087 nM; EC50 (read-out: Activity (EC50 class), HCV pseudoparticles (genotype 1a, H77C) in Huh7 cells, EC50 expressed as class A/B): 0.01 to 10 nM
28 | CC(C)(O)C=Cc1cccc(NC(=O)C(=O)NCC[C@H](NC(=O)c2ccc(Nc3nc(NC4(c5ccc(Cl)cc5)CC4)nc(OCC(F)(F)F)n3)cc2)C(=O)O)c1 [Compound 3648] | – | 0.01 to 10 | EC50 [4]: 0.2 nM
29 | CC(C)(CNC(=O)C(=O)Nc1cccc(CCC(=O)O)c1)CNC(=O)c1ccc(Nc2nc(NC3(c4ccc(Cl)cc4)CC3)nc(OCC(F)(F)F)n2)cc1 [Compound 1482] | 0.01 to 10 | – | EC50 [5]: 0.17 nM
30 | O=C(NCCc1c[nH]cn1)C(=O)NCC[C@H](NC(=O)c1ccc(Nc2nc(NC3(c4ccc(Cl)cc4)CC3)nc(OCC(F)(F)F)n2)cc1)C(=O)O [Compound 1339] | 0.01 to 10 | – | –
31 | O=C(NCC[C@H](NC(=O)c1ccc(Nc2nc(NC3(c4ccc(Cl)cc4)CC3)nc(OCC(F)(F)F)n2)cc1)C(=O)O)C(=O)NCc1ccccc1 [Compound 1187] | 0.01 to 10 | – | EC50 [5]: 0.08 nM
32 | COC(=O)[C@H](CNC(=O)C(=O)Nc1ccc(Cl)nc1)NC(=O)c1ccc(Nc2nc(NC3(c4ccc(Cl)cc4)CC3)nc(OCC(F)(F)F)n2)cc1 [Compound 3683] | – | 0.01 to 10 | –
33 | O=C(NC[C@H](NC(=O)c1ccc(Nc2nc(NC3(c4ccc(Cl)cc4)CC3)nc(OCC(F)(F)F)n2)cc1)C(=O)O)C(=O)NC1CCCCC1O (stereo partly shown) [Compound 1081] | 0.01 to 10 | – | –
34 | Cc1ccc(NC(=O)C(=O)NCC(C)(C)CNC(=O)c2ccc(Nc3nc(NC4(c5ccc(Cl)cc5)CC4)nc(OCc4cccc(F)c4)n3)cc2)cc1 [Compound 3846] | – | 0.01 to 10 | –
35 | COC(=O)[C@H](CNC(=O)C(=O)Nc1cccc(-c2nnnn2C)c1)NC(=O)c1ccc(Nc2nc(NC3(c4ccc(Cl)cc4)CC3)nc(OCC(F)(F)F)n2)cc1 [Compound 3731] | – | 0.01 to 10 | –
36 | Cc1cc(C)n(-c2ccc(NC(=O)C(=O)NCC[C@H](NC(=O)c3ccc(Nc4nc(NC5(c6ccc(Cl)cc6)CC5)nc(OCC(F)(F)F)n4)cc3)C(=O)O)cc2)n1 [Compound 3238] | – | – | EC50 [2]: 0.01 to 10 nM
37 | CC(C)(CNC(=O)C(=O)Nc1nc2ccc(F)cc2s1)CNC(=O)c1ccc(Nc2nc(NC3(c4ccc(Cl)cc4)CC3)nc(OCC(F)(F)F)n2)cc1 [Compound 3804] | – | 0.01 to 10 | –
38 | COC(=O)[C@H](CNC(=O)C(=O)Nc1ccnc(OC)c1)NC(=O)c1ccc(Nc2nc(NC3(c4ccc(Cl)cc4)CC3)nc(OCC(F)(F)F)n2)cc1 [Compound 1241] | 0.01 to 10 | – | EC50 [5]: 0.99 nM
39 | COC(=O)c1cccc(-c2ccccc2NC(=O)C(=O)NCC(C)(C)CNC(=O)c2ccc(Nc3nc(NC4(c5ccc(Cl)cc5)CC4)nc(OCC(F)(F)F)n3)cc2)c1 [Compound 3045] | – | – | EC50 [2]: 0.01 to 10 nM
40 | CN(CCCNC(=O)c1ccc(Nc2nc(NC3(c4ccc(Cl)cc4)CC3)nc(OCC(F)(F)F)n2)cc1)C(=O)C(=O)Nc1cc(F)cc(F)c1 [Compound 3451] | – | – | EC50 [2]: 0.01 to 10 nM
41 | O=C(NCC[C@H](NC(=O)c1ccc(Nc2nc(NC3(c4ccc(Cl)cc4)CC3)nc(OCC(F)(F)F)n2)cc1)C(=O)O)C(=O)NC1CCCC(O)C1 (stereo partly shown) [Compound 1112] | 0.01 to 10 | – | EC50 [5]: 1.23 nM
42 | O=C(NC[C@H](NC(=O)c1ccc(Nc2nc(NC3(c4ccc(Cl)cc4)CC3)nc(OCC(F)(F)F)n2)cc1)C(=O)O)C(=O)Nc1ccc(OC2CCOCC2)cc1 [Compound 3291] | – | – | EC50 [2]: 0.01 to 10 nM
43 | O=C(NC[C@H](NC(=O)c1ccc(Nc2nc(NC3(c4ccc(Cl)cc4)CC3)nc(OCC(F)(F)F)n2)cc1)C(=O)O)C(=O)Nc1cccc(-c2ccc(Cl)cc2)c1 [Compound 3775] | – | 0.01 to 10 | –
44 | COC(=O)[C@H](CCNC(=O)C(=O)NC(COCc1ccccc1)C1CC1)NC(=O)c1ccc(Nc2nc(NC3(c4ccc(Cl)cc4)CC3)nc(OCC(F)(F)F)n2)cc1 (stereo partly shown) [Compound 1370] | 0.01 to 10 | – | –
45 | O=C(NCC[C@H](NC(=O)c1ccc(Nc2nc(NC3(c4ccc(Cl)cc4)CC3)nc(OCC(F)(F)F)n2)cc1)C(=O)O)C(=O)Nc1cccc(-n2ccnc2)c1 [Compound 3659] | – | 0.01 to 10 | –
